Holding throughout (format): in vivo
Experiment [1] has as its system Tetrabenazine-Induced Ptosis. The experiment can be described thus: Prevention of Tetrabenazine-Induced Ptosis in Mice. As to conditions: Mus musculus, read-out: Ed50 (prevention of tetrabenazine-induced ptosis). As to the method: The antidepressant activities were evaluated in this invention on the basis of prevention of Tetrabenazine-induced ptosis in mice. The test method and results are described below.
Tetrabenazine (TBZ) induces behavioral depression with concomitant ptosis in mice similar to reserpine. Antidepressant compounds, both monoamineoxidase inhibitors and tricyclics, are known to prevent or antagonize these effects and the degree of antagonism correlates with clinical efficacy. The prevention of TBZ-induced ptosis in mice is used as a preliminary screen for possible antidepressant activity. The method used in this invention is as follows:
Male mice weighing 20 to 30 grams are used in test groups of five subjects. All compounds are dissolved or suspended with a suitable surfactant in distilled water and administered in volumes of 10 ml/kg of body weight. TBZ solution is made from the methanesulfonate salt and the concentration is adjusted to enable administration of 60 mg/kg of base by intraperitoneal (i.p.) injection.
The pretreatment time is measured from the time of dosing to observation. Therefore, when a 30-minute pretreat is utilized, drug and TBZ are given simultaneously. A control group received solvent and TBZ at intervals identical to drug group. For a primary screen, the drug is administered i.p. and a group size of five is utilized. Eight animals/group are used for a dose range.
The total score for each group of five in a primary screen will, therefore, be from 0 to 20 and these scores are used as indications of drug activity.
The vehicle control group score is used as a determinant of the validity of each test. […] The calculation of percent inhibition of ptosis is: [formula]

Experiment [2] concerns Scopolamine Induced Memory Deficit. In words: Dark Avoidance Assay (reversal of scopolamine induced memory deficit). As to conditions: s.c., mice. The procedure:
In this assay mice are tested for their ability to remember an unpleasant stimulus for a period of 24 hours. A mouse is placed in a chamber that contains a dark compartment; a strong incandescent light drives it to the dark compartment, where an electric shock is administered through metal plates on the floor. The animal is removed from the testing apparatus and tested again, 24 hours later, for the ability to remember the electric shock.
If scopolamine, an anticholinergic that is known to cause memory impairment, is administered before an animal's initial exposure to the test chamber, the animal re-enters the dark compartment shortly after being placed in the test chamber 24 hours later.

Experiment [3] concerns 2-phenyl-1,4-benzoquinone-induced writhing. The experiment can be described thus: 2-phenyl-1,4-benzoquinone-induced writhing (PQW) test in mice. The conditions noted are these: Mus musculus, sc, read-out: ANALGESIC ACTIVITY ED50, POW. The source says: (§1) Compounds I of the present invention are also useful as analgesic agents due to their ability to alleviate pain in mammals. […] Exptl. Biol. Med., 95, 729 (1957)] and in modified Haffner's analgesia.
(In general: An intraperitoneal irritant provokes the stretching counted in writhing tests.)

Experiment [4] has as its system sensitivity of mice to pressure stress (artery clip on tail). In words: Modified Haffner's Analgesia (tail clip pressure stress). As to conditions: Mus musculus, sc, read-out: ANALGESIC ACTIVITY ED50, Modified Haffner's Analgesia.
From the text: as §1
The latter assay is used to evaluate analgesic activity by measuring drug-induced changes in the sensitivity of mice to pressure stress by placing an artery clip (21/2 inches long) on their tail. The procedure used is a modification of the test developed by Haffner, Dtsch. Med. Wschr. 55, 731 (1929), and it is described below.
Male mice (Charles River, DC-1), from 18-30 grams are used for the test. An artery clip is applied to the root of the tail of a mouse (approximately 1/2 inch from the body) to induce pain. The animals quickly respond to this noxious stimuli by biting the clip or the location of the clip. This reaction time, the interval between stimulus onset and response, is recorded in 1/10 second increments by a stop watch.
For a time response, the screening dose (25 mg/kg) is administered subcutaneously (10 ml/kg) to the animal receiving food and water ad libitum before testing. Animals receiving the compound orally are fasted 18-24 hours before drug administration. Drug to be tested is prepared with distilled water and if insoluble, one drop of a surfactant is added.
Twenty-eight animals (seven/group) are administered the drug 15, 30, 45 and 60 minutes prior to testing.
The cut-off time (CO) is determined by taking the Xav +3σ of the combined response latencies of the control mice in all time periods where Xav is the average of X and σ is the standard deviation.
Any reaction time, in subsequent drug tests, which is greater than the CO (for the same time period) therefore exceeds 99% of a normal Gaussian distribution and is called "positive response" indicative of analgesic activity. A time response indicates the period of greatest analgesic effect after dosing. The ED50 is determined at the peak time of drug activity. A minimum of three dose groups are used. ED50 's are calculated using computer analysis.

Where [5] appears, read: po, male mice, TBZ 60 mg/kg i.p.
[6] abbreviates: male mice, at peak time of drug activity.
[7] abbreviates: ip, male mice, TBZ 60 mg/kg i.p.

Counter-ions that a name gives are not always drawn. Like-named read-outs stand apart in the source and are kept apart here.

For orientation: ED50 means the dose that gives a 50% effect, or the effect in half of the subjects.

`CNCCCN1c2ccccc2CCc2ccccc21` [Desipramine, reference compound]: the ED50 in experiment [1] (po) was found to be 2.3 mg/kg.

As to `O=C(O)/C=C\C(=O)O.c1ccc2c(c1)ccn2Nc1ccncc1` [Example 1, N-(4-Pyridinyl)-1H-indol-1-amine maleate], the “% of Animals With Scopolamine Induced Memory Deficit Reversed” value in experiment [2] (0.31 mg/kg body weight) is 33%. In addition, the figures for the median effective dose (ED50) in experiment [1] (setting [5]), in experiment [3] (mice) and in experiment [4] (setting [6]) were 3.3 mg/kg, 0.86 mg/kg and 5.7 mg/kg, respectively.

In the case of `CN(c1ccncc1)n1ccc2ccccc21.O=C(O)/C=C\C(=O)O` [Example 2, N-Methyl-N-(4-pyridinyl)-1H-indol-1-amine maleate], the “% of Animals With Scopolamine Induced Memory Deficit Reversed” value in experiment [2] (0.04 mg/kg body weight) stood at 53%. Also, the median effective dose (ED50) in experiment [1] (setting [5]) stood at 3.3 mg/kg; in experiment [3] (mice), 3.2 mg/kg; in experiment [4] (setting [6]) it was 16.3 mg/kg.

For `CCN(c1ccncc1)n1ccc2ccccc21.O=C(O)/C=C\C(=O)O` [Example 3, N-Ethyl-N-(4-pyridinyl)-1H-indol-1-amine maleate], the “% of Animals With Scopolamine Induced Memory Deficit Reversed” value in experiment [2] (0.63 mg/kg body weight) was determined as 33%. In experiment [1] (setting [5]), the median effective dose (ED50) is 5.6 mg/kg.

In the case of `CCCN(c1ccncc1)n1ccc2ccccc21.O=C(O)/C=C\C(=O)O` [Example 4, N-Propyl-N-(4-pyridinyl)-1H-indol-1-amine maleate], in experiment [2] (0.08 mg/kg body weight), the “% of Animals With Scopolamine Induced Memory Deficit Reversed” value was 27%. The 50% effective dose (ED50) in experiment [1] (setting [5]) amounted to 5.1 mg/kg; in experiment [3] (mice), 5.1 mg/kg; in experiment [4] (setting [6]), 31 mg/kg.

Take `CCCN(c1ccncc1)n1ccc2cc(OC)ccc21.O=C(O)/C=C\C(=O)O` [Example 5, 5-Methoxy-N-propyl-N-(4-pyridinyl)-1H-indol-1-amine maleate]: the median effective dose (ED50) in experiment [1] (setting [5]) worked out at 29.8 mg/kg.

For `CN(c1ccncc1)n1cc(C=O)c2ccccc21` [Example 6, N-Methyl-N-(4-pyridinyl)-1H-indol-1-amine-3-carboxaldehyde maleate], in experiment [1] (setting [5]), the 50% effective dose (ED50) is 9.7 mg/kg.

Turning to `CCN(c1ccncc1)n1cc(C=O)c2ccccc21` [Example 7, N-Ethyl-N-(4-pyridinyl)-1H-indol-1-amine-3-carboxaldehyde maleate], the 50% effective dose (ED50) in experiment [1] (setting [5]) came to 11.9 mg/kg.

On to `C=Cc1cn(N(C)c2ccncc2)c2ccccc12.O=C(O)/C=C\C(=O)O` [Example 10, 3-Ethenyl-N-methyl-N-(4-pyridinyl)-1H-indol-1-amine maleate], for which the median effective dose (ED50) in experiment [3] (mice) and in experiment [4] (setting [6]) was 1 mg/kg each time.

For `CCc1cn(N(C)c2ccncc2)c2ccccc12.Cl` [Example 11, 3-Ethyl-N-methyl-N-(4-pyridinyl)-1H-indol-1-amine hydrochloride], the results for the 50% effective dose (ED50) in experiment [3] (mice) and in experiment [4] (setting [6]) were 0.9 mg/kg and 1 mg/kg, respectively.

For `CN(c1ccncc1)n1ccc2cc([N+](=O)[O-])ccc21.O=C(O)/C=C\C(=O)O` [Example 18, N-Methyl-5-nitro-N-(4-pyridinyl)-1H-indol-1-amine maleate], the median effective dose (ED50) in experiment [3] (mice) was 1 mg/kg.

As for `Cc1cn(Nc2ccncc2)c2ccccc12.O=C(O)C(=O)O` [Example 19, 3-Methyl-N-(4-pyridinyl)-1H-indol-1-amine oxalate], the 50% effective dose (ED50) was 1 mg/kg in experiment [1] (setting [7]), 0.4 mg/kg in experiment [3] (mice) and 0.7 mg/kg in experiment [4] (setting [6]).

As to `CCCN(c1ccncc1)n1cc(C)c2ccccc21.O=C(O)/C=C\C(=O)O` [Example 20, 3-Methyl-N-propyl-N-(4-pyridinyl)-1H-indol-1-amine maleate], in experiment [2] (0.31 mg/kg body weight), the “% of Animals With Scopolamine Induced Memory Deficit Reversed” value is 27%. For the same compound, the median effective dose (ED50) in experiment [1] (setting [7]) was found to be 1.8 mg/kg; in experiment [3] (mice), 4.1 mg/kg; in experiment [4] (setting [6]), 1.4 mg/kg.

With `CCCN(c1ccncc1F)n1cc(C)c2ccccc21.Cl` [Example 22, N-(3-Fluoro-4-pyridinyl)-N-propyl-3-methyl-1H-indol-1-amine hydrochloride], the “% of Animals With Scopolamine Induced Memory Deficit Reversed” value in experiment [2] (0.31 mg/kg body weight) amounted to 33%.

For the compound `C=CCN(c1ccncc1)n1ccc2ccccc21.O=C(O)/C=C\C(=O)O` [Example 23, N-(2-Propen-1-yl)-N-(4-pyridinyl)-1H-indol-1-amine maleate], the ED50 in experiment [1] (setting [7]) came to 4.2 mg/kg; in experiment [3] (mice) it was 1.3 mg/kg; in experiment [4] (setting [6]), 3.8 mg/kg.

Take `CC(C)=CCN1CCC2(C)c3cc(O)ccc3CC1C2C` (stereo not shown) [Pentazocine, reference compound]: the median effective dose (ED50) in experiment [3] was 1.3 mg/kg; in experiment [4] it was 3.9 mg/kg.

In the case of `CNC(=O)Oc1ccc2c(c1)[C@]1(C)CCN(C)[C@@H]1N2C` [Physostigmine, (3aS-cis)-1,2,3,3a,8,8a-hexahydro-1,3a,8-trimethyl-pyrrolo[2,3-b]indol-5-ol, methyl carbamate, reference compound], in experiment [2] (0.31 mg/kg body weight), the “% of Animals With Scopolamine Induced Memory Deficit Reversed” value turned out to be 20%.

The record behind these values is patent US5039811A, “Preparation of N-(pyridinyl)-1H-indol-1-amines” (Hoechst-Roussel Pharmaceuticals Inc., priority 1990, dated 1991).
